Source: patent US12612387B2, “RAS inhibitors and methods of using the same” (Jazz Pharmaceuticals Ireland Limited, priority 2020, dated 2026)

Tests used:
K-RAS G12C = biological target: T1, K-RAS G12C (Homo sapiens, UniProt P01116, G12C); assay: Compound depletion assay, K-RAS G12C; assay type: binding; conditions: G12C protein 20 μM, compound 8 μM, 25° C.
T1 construct: His tag; purchased Stratech
Method: (§1) Compound Depletion Assay Method
(§2) Lyophilized human K-RAS (12 Cys) protein (His tag) and human K-RAS (12 Asp) protein (His tag) were purchased from Stratech and reconstituted at 30 μM in water. The protein concentration of K-RAS G12C and K-RAS G12D was adjusted to 20 μM in K-RAS Assay Buffer (20 mM HEPES pH 7.5, 150 mM NaCl, 1 mM MgCl2). A 49 μl aliquot of protein solution was transferred to 1.5 ml eppendorfs and incubated at room temperature for 10 minutes. A 1 μl aliquot of compound solution in DMSO was added to the protein solutions in the 1.5 ml eppendorfs to initiate the reaction, with a final assay compound concentration of 8 μM. Reactions were agitated at 25° C., 700 rpm. At each time point (0, 30, 180, 360, 1440 minutes), 10 μl of the reaction mixture was removed, added to 30 μl quench solution (0.3% formic acid, 75 nM propranolol in acetonitrile) to stop the reaction and stored at 4° C. Once all reactions were quenched, the samples were centrifuged at 16000 g for 10 minutes to pellet the protein and salts. A 10 μl aliquot of supernatant containing compound was diluted in 50:50 acetonitrile:H2O in a 96 well plate. The plates were heat sealed and the samples analysed by LC-MS/MS to determine the concentration of compound remaining in the samples. To determine the reaction progress, the compound signal was normalized to the internal standard signal (propranolol). The decrease in free compound concentration is shown as a percentage over time, with the […] at time zero fixed at one hundred percent. Compound is assumed to be completely depleted when no longer detectable with a double blank sample as reference.

K-RAS G12D = biological target: T2, K-RAS G12D (Homo sapiens, UniProt P01116, G12D); assay: Compound depletion assay, K-RAS G12D; assay type: binding; conditions: G12D protein 20 μM, compound 8 μM, 25° C.
T2 construct: His tag; purchased Stratech
Method: as §1, §2

T1 sequence (P01116 1-188 isoform P01116-2 G12C): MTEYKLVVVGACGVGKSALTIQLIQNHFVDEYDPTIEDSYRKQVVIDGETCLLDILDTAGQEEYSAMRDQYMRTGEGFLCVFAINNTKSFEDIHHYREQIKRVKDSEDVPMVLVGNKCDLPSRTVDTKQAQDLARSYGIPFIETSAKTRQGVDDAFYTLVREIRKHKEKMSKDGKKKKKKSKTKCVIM
T2 sequence (P01116 1-188 isoform P01116-2 G12D): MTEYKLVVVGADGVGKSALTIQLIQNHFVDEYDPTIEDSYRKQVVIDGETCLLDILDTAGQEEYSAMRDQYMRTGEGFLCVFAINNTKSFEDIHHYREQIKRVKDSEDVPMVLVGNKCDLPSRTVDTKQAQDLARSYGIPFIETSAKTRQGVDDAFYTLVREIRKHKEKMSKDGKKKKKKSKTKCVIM

| SMILES | 3 hr Category (compound remaining at timepoint) (K-RAS G12C) | 24 hr Category (compound remaining at timepoint) (K-RAS G12C) | 3 hr Category (compound remaining at timepoint) (K-RAS G12D) | 24 hr Category (compound remaining at timepoint) (K-RAS G12D) | 30 min Category (compound remaining at timepoint) (K-RAS G12C) | 6 hr Category (compound remaining at timepoint) (K-RAS G12C) | 30 min Category (compound remaining at timepoint) (K-RAS G12D) | 6 hr Category (compound remaining at timepoint) (K-RAS G12D) |
| --- | --- | --- | --- | --- | --- | --- | --- | --- |
| C=CC(=O)N1CCN(c2cc(C(=O)N(C)c3cccc4ccccc34)nc(OC[C@@H]3CCCN3C)n2)CC1 [Example 13, N-methyl-2-[[(2S)-1-methylpyrrolidin-2-yl]methoxy]-N-(1-naphthyl)-6-(4-prop-2-enoylpiperazin-1-yl)pyrimidine-4-carboxamide] | A (≥70% compound remaining at timepoint) | A (≥70% compound remaining at timepoint) | A (≥70% compound remaining at timepoint) | A (≥70% compound remaining at timepoint) |  |  |  |  |
| C=CC(=O)N1CCN(c2cc(C(=O)NCc3ccccc3)nc(OC[C@@H]3CCCN3C)n2)CC1 [Example 14, N-benzyl-2-[[(2S)-1-methylpyrrolidin-2-yl]methoxy]-6-(4-prop-2-enoylpiperazin-1-yl)pyrimidine-4-carboxamide] | A (≥70% compound remaining at timepoint) | A (≥70% compound remaining at timepoint) | A (≥70% compound remaining at timepoint) | A (≥70% compound remaining at timepoint) |  |  |  |  |
| C=CC(=O)N1CCN(c2cc(C(=O)N3c4ccccc4CCC3C)nc(OC[C@@H]3CCCN3C)n2)CC1 (stereo partly drawn) [Example 15, 1-[4-[6-(2-methyl-3,4-dihydro-2H-quinoline-1-carbonyl)-2-[[(2S)-1-methylpyrrolidin-2-yl]methoxy]pyrimidin-4-yl]piperazin-1-yl]prop-2-en-1-one] | A (≥70% compound remaining at timepoint) | A (≥70% compound remaining at timepoint) | A (≥70% compound remaining at timepoint) | A (≥70% compound remaining at timepoint) |  |  |  |  |
| C=CC(=O)N1CCN(c2cc(C(=O)N3CCOc4ccccc43)nc(OC[C@@H]3CCCN3C)n2)CC1 [Example 16, 1-[4-[6-(2,3-dihydro-1,4-benzoxazine-4-carbonyl)-2-[[(2S)-1-methylpyrrolidin-2-yl]methoxy]pyrimidin-4-yl]piperazin-1-yl]prop-2-en-1-one] | A (≥70% compound remaining at timepoint) | A (≥70% compound remaining at timepoint) | A (≥70% compound remaining at timepoint) | A (≥70% compound remaining at timepoint) |  |  |  |  |
| C=CC(=O)N1CCN(c2cc(C(=O)N3CCCc4cccc(C)c43)nc(OC[C@@H]3CCCN3C)n2)CC1 [Example 17, 1-[4-[6-(8-methyl-3,4-dihydro-2H-quinoline-1-carbonyl)-2-[[(2S)-1-methylpyrrolidin-2-yl]methoxy]pyrimidin-4-yl]piperazin-1-yl]prop-2-en-1-one] | A (≥70% compound remaining at timepoint) | A (≥70% compound remaining at timepoint) | A (≥70% compound remaining at timepoint) | A (≥70% compound remaining at timepoint) |  |  |  |  |

Other lines, results leading:

| 3 hr Category (compound remaining at timepoint) (K-RAS G12C) | 24 hr Category (compound remaining at timepoint) (K-RAS G12C) | 3 hr Category (compound remaining at timepoint) (K-RAS G12D) | 24 hr Category (compound remaining at timepoint) (K-RAS G12D) | 30 min Category (compound remaining at timepoint) (K-RAS G12C) | 6 hr Category (compound remaining at timepoint) (K-RAS G12C) | 30 min Category (compound remaining at timepoint) (K-RAS G12D) | 6 hr Category (compound remaining at timepoint) (K-RAS G12D) | SMILES |
| --- | --- | --- | --- | --- | --- | --- | --- | --- |
| A (≥70% compound remaining at timepoint) | A (≥70% compound remaining at timepoint) | A (≥70% compound remaining at timepoint) | A (≥70% compound remaining at timepoint) |  |  |  |  | C=CC(=O)N1CCN(c2cc(C(=O)Nc3ccccc3)nc(OC[C@@H]3CCCN3C)n2)CC1 [Example 18, 2-[[(2S)-1-methylpyrrolidin-2-yl]methoxy]-N-phenyl-6-(4-prop-2-enoylpiperazin-1-yl)pyrimidine-4-carboxamide] |
| A (≥70% compound remaining at timepoint) | A (≥70% compound remaining at timepoint) | A (≥70% compound remaining at timepoint) | A (≥70% compound remaining at timepoint) |  |  |  |  | C=CC(=O)N1CCN(c2cc(C(=O)Nc3c(C)ccc4ncccc34)nc(OC[C@@H]3CCCN3C)n2)CC1 [Example 19, 2-[[(2S)-1-methylpyrrolidin-2-yl]methoxy]-N-(6-methyl-5-quinolyl)-6-(4-prop-2-enoylpiperazin-1-yl)pyrimidine-4-carboxamide] |
| A (≥70% compound remaining at timepoint) | A (≥70% compound remaining at timepoint) | A (≥70% compound remaining at timepoint) | A (≥70% compound remaining at timepoint) |  |  |  |  | C=CC(=O)N1CCN(c2cc(C(=O)Nc3cccc4ccccc34)nc(N3CCN(C)CC3)n2)CC1 [Example 20, 2-(4-methylpiperazin-1-yl)-N-(1-naphthyl)-6-(4-prop-2-enoylpiperazin-1-yl)pyrimidine-4-carboxamide] |
| A (≥70% compound remaining at timepoint) | A (≥70% compound remaining at timepoint) | A (≥70% compound remaining at timepoint) | A (≥70% compound remaining at timepoint) |  |  |  |  | C=CC(=O)N1CCN(c2cc(C(=O)Nc3cccc4ccccc34)nc(N(C)CCN(C)C)n2)CC1 [Example 21, 2-[2-(dimethylamino)ethyl-methyl-amino]-N-(1-naphthyl)-6-(4-prop-2-enoylpiperazin-1-yl)pyrimidine-4-carboxamide] |
| A (≥70% compound remaining at timepoint) | A (≥70% compound remaining at timepoint) | A (≥70% compound remaining at timepoint) | A (≥70% compound remaining at timepoint) |  |  |  |  | C=CC(=O)N1CCN(c2cc(C(=O)Nc3cccc4[nH]ncc34)nc(OC[C@@H]3CCCN3C)n2)CC1 [Example 22, N-(1H-indazol-4-yl)-2-[[(2S)-1-methylpyrrolidin-2-yl]methoxy]-6-(4-prop-2-enoylpiperazin-1-yl)pyrimidine-4-carboxamide] |
| A (≥70% compound remaining at timepoint) |  | A (≥70% compound remaining at timepoint) |  | A (≥70% compound remaining at timepoint) | A (≥70% compound remaining at timepoint) | A (≥70% compound remaining at timepoint) | A (≥70% compound remaining at timepoint) | C=CC(=O)N1C[C@@H]2C[C@H]1CN2c1cc(C(=O)Nc2cc(O)cc3ccccc23)nc(OC[C@@H]2CCCN2C)n1 [Example 23, N-(3-hydroxy-1-naphthyl)-2-[[(2S)-1-methylpyrrolidin-2-yl]methoxy]-6-[(1S,4S)-2-prop-2-enoyl-2,5-diazabicyclo[2.2.1]heptan-5-yl]pyrimidine-4-carboxamide] |
| A (≥70% compound remaining at timepoint) |  | A (≥70% compound remaining at timepoint) |  | A (≥70% compound remaining at timepoint) | A (≥70% compound remaining at timepoint) | A (≥70% compound remaining at timepoint) | A (≥70% compound remaining at timepoint) | C=CC(=O)N1CCN(c2cc(C(=O)Nc3cc(O)cc4ccccc34)nc(-c3ccccc3)n2)C[C@@H]1CC#N [Example 24, 6-[(3S)-3-(cyanomethyl)-4-prop-2-enoyl-piperazin-1-yl]-N-(3-hydroxy-1-naphthyl)-2-phenyl-pyrimidine-4-carboxamide] |
| A (≥70% compound remaining at timepoint) |  | A (≥70% compound remaining at timepoint) |  | A (≥70% compound remaining at timepoint) | A (≥70% compound remaining at timepoint) | A (≥70% compound remaining at timepoint) | A (≥70% compound remaining at timepoint) | C=CC(=O)N1CCN(c2cc(C(=O)Nc3cc(O)cc4ccccc34)nc(-c3cccnc3)n2)C[C@@H]1CC#N [Example 25, 6-[(3S)-3-(cyanomethyl)-4-prop-2-enoyl-piperazin-1-yl]-N-(3-hydroxy-1-naphthyl)-2-(3-pyridyl)pyrimidine-4-carboxamide] |
